Results reported in ChEMBL document CHEMBL1255278, “Caspofungin prolongs survival of transiently neutropenic rats with advanced-stage invasive pulmonary aspergillosis” (Antimicrob Agents Chemother, 2008).
Converted amounts (≈) assume the structure as drawn.

Key:
Aspergillus fumigatus [1] = assay: Antifungal activity against Aspergillus fumigatus infected in neutropenic rat assessed as survival of rat at 4 mg/kg/day, ip administered 16 hrs post infection for 10 days; type: functional; conditions: route intraperitoneal
Aspergillus fumigatus [2] = assay: Antifungal activity against Aspergillus fumigatus infected in neutropenic rat assessed as survival of rat at 4 mg/kg/day, ip administered 24 hrs post infection for 10 days; type: functional; conditions: route intraperitoneal
Aspergillus fumigatus [3] = assay: Antifungal activity against Aspergillus fumigatus infected in neutropenic rat assessed as survival of rat at 4 mg/kg/day, ip administered 72 hrs post infection for 10 days; type: functional; conditions: route intraperitoneal
Aspergillus fumigatus [4] = assay: Antifungal activity against Aspergillus fumigatus infected in neutropenic rat assessed as survival of rat at 10 mg/kg/day, ip administered 72 hrs post infection for 10 days; type: functional; conditions: route intraperitoneal
[5] = AUC in neutropenic rat at 10 mg/kg/day after 3 days; type: ADME, organism-based; conditions: plasma
[6] = AUC in neutropenic rat at 10 mg/kg/day for 3 days followed by 4 mg/kg/day for 7 days measured after 10 days; type: ADME, organism-based; conditions: plasma
Rattus norvegicus [7] = assay: Renal toxicity in neutropenic rat assessed as creatine level in serum at 4 mg/kg/day, ip administered 72 hrs post infection for 10 days measured on day 6 after infection (Rvb=34.8+/-5.8 umol/l); type: organism-based; parameters: route intraperitoneal; conditions: in vivo
Rattus norvegicus [8] = assay: Renal toxicity in neutropenic rat assessed as creatine level in serum at 10 mg/kg/day, ip administered 72 hrs post infection for 3 days followed by 4 mg/kg/day, ip for 7 days measured on day 6 after infection (Rvb=34.8+/-5.8 umol/l); type: organism-based; conditions: in vivo
Rattus norvegicus [9] = assay: Renal toxicity in neutropenic rat assessed as […] in serum at 10 mg/kg/day, ip administered 72 hrs post infection for 10 days measured on day 6 after infection (Rvb=34.8+/-5.8 umol/l); type: organism-based; parameters: route intraperitoneal; conditions: in vivo
Rattus norvegicus [10] = assay: Renal toxicity in neutropenic rat assessed as creatine level in serum at 4 mg/kg/day, ip administered 72 hrs post infection for 10 days measured on day 13 after infection (Rvb=26.7+/-6.1 umol/l); type: organism-based; parameters: route intraperitoneal; conditions: in vivo
Rattus norvegicus [11] = assay: Renal toxicity in neutropenic rat assessed as […] in serum at 10 mg/kg/day, ip administered 72 hrs post infection for 3 days followed by 4 mg/kg/day, ip for 7 days measured on day 13 after infection (Rvb=26.7+/-6.1 umol/l); type: organism-based; conditions: in vivo
Rattus norvegicus [12] = assay: Renal toxicity in neutropenic rat assessed as creatine level in serum at 10 mg/kg/day, ip administered 72 hrs post infection for 10 days measured on day 13 after infection (Rvb=26.7+/-6.1 umol/l); type: organism-based; parameters: route intraperitoneal; conditions: in vivo
Rattus norvegicus [13] = assay: Renal toxicity in neutropenic rat assessed as blood urea nitrogen level in serum at 4 mg/kg/day, ip administered 72 hrs post infection for 10 days measured on day 6 after infection (Rvb=4.4+/-0.5 mmol/l); type: organism-based; parameters: route intraperitoneal; conditions: in vivo
Rattus norvegicus [14] = assay: Renal toxicity in neutropenic rat assessed as blood urea nitrogen level in serum at 10 mg/kg/day, ip administered 72 hrs post infection for 3 days followed by 4 mg/kg/day, ip for 7 days measured on day 6 after infection (Rvb=4.4+/-0.5 mmol/l); type: organism-based; conditions: in vivo
Rattus norvegicus [15] = assay: Renal toxicity in neutropenic rat assessed as blood urea nitrogen level in serum at 10 mg/kg/day, ip administered 72 hrs post infection for 10 days measured on day 6 after infection (Rvb=4.4+/-0.5 mmol/l); type: organism-based; parameters: route intraperitoneal; conditions: in vivo
Rattus norvegicus [16] = assay: Renal toxicity in neutropenic rat assessed as blood urea nitrogen level in serum at 4 mg/kg/day, ip administered 72 hrs post infection for 10 days measured on day 13 after infection (Rvb=5.8+/-0.4 mmol/l); type: organism-based; parameters: route intraperitoneal; conditions: in vivo
Rattus norvegicus [17] = assay: Renal toxicity in neutropenic rat assessed as blood urea nitrogen level in serum at 10 mg/kg/day, ip administered 72 hrs post infection for 3 days followed by 4 mg/kg/day, ip for 7 days measured on day 13 after infection (Rvb=5.8+/-0.4 mmol/l); type: organism-based; conditions: in vivo
Rattus norvegicus [18] = assay: Renal toxicity in neutropenic rat assessed as blood urea nitrogen level in serum at 10 mg/kg/day, ip administered 72 hrs post infection for 10 days measured on day 13 (Rvb=5.8+/-0.4 mmol/l); type: organism-based; parameters: route intraperitoneal; conditions: in vivo
Rattus norvegicus [19] = assay: Hepatotoxicity in neutropenic rat assessed as ALAT level in serum at 4 mg/kg/day, ip administered 72 hrs post infection for 10 days measured on day 6 after infection (Rvb=43.9+/-7.9 U/l); type: toxicity, organism-based; parameters: route intraperitoneal; conditions: in vivo
Rattus norvegicus [20] = assay: Hepatotoxicity in neutropenic rat assessed as ALAT level in serum at 10 mg/kg/day, ip administered 72 hrs post infection for 3 days followed by 4 mg/kg/day, ip for 7 days measured on day 6 after infection (Rvb=43.9+/-7.9 U/l); type: toxicity, organism-based; conditions: in vivo
Rattus norvegicus [21] = assay: Hepatotoxicity in neutropenic rat assessed as ALAT level in serum at 4 mg/kg/day, ip administered 72 hrs post infection for 10 days measured on day 13 after infection (Rvb=51.3+/-5.2 U/l); type: toxicity, organism-based; parameters: route intraperitoneal; conditions: in vivo
Rattus norvegicus [22] = assay: Hepatotoxicity in neutropenic rat assessed as ALAT level in serum at 10 mg/kg/day, ip administered 72 hrs post infection for 3 days followed by 4 mg/kg/day, ip for 7 days measured on day 13 after infection (Rvb=51.3+/-5.2 U/l); type: toxicity, organism-based; conditions: in vivo
Rattus norvegicus [23] = assay: Hepatotoxicity in neutropenic rat assessed as ALAT level in serum at 10 mg/kg/day, ip administered 72 hrs post infection for 10 days measured on day 13 after infection (Rvb=51.3+/-5.2 U/l); type: toxicity, organism-based; parameters: route intraperitoneal; conditions: in vivo
Rattus norvegicus [24] = assay: Hepatotoxicity in neutropenic rat assessed as ASAT level in serum at 4 mg/kg/day, ip administered 72 hrs post infection for 10 days measured on day 6 after infection (Rvb=51.2+/-9.4 U/l); type: toxicity, organism-based; parameters: route intraperitoneal; conditions: in vivo
Rattus norvegicus [25] = assay: Hepatotoxicity in neutropenic rat assessed as ASAT level in serum at 10 mg/kg/day, ip administered 72 hrs post infection for 3 days followed by 4 mg/kg/day, ip for 7 days measured on day 6 after infection (Rvb=51.2+/-9.4 U/l); type: toxicity, organism-based; conditions: in vivo
Rattus norvegicus [26] = assay: Hepatotoxicity in neutropenic rat assessed as ASAT level in serum at 10 mg/kg/day, ip administered 72 hrs post infection for 10 days measured on day 6 after infection (Rvb=51.2+/-9.4 U/l); type: toxicity, organism-based; parameters: route intraperitoneal; conditions: in vivo
Rattus norvegicus [27] = assay: Hepatotoxicity in neutropenic rat assessed as ASAT level in serum at 4 mg/kg/day, ip administered 72 hrs post infection for 10 days measured on day 13 after infection (Rvb=46.6+/-6.1 U/l); type: toxicity, organism-based; parameters: route intraperitoneal; conditions: in vivo
Rattus norvegicus [28] = assay: Hepatotoxicity in neutropenic rat assessed as ASAT level in serum at 10 mg/kg/day, ip administered 72 hrs post infection for 3 days followed by 4 mg/kg/day, ip for 7 days measured on day 13 after infection (Rvb=46.6+/-6.1 U/l); type: toxicity, organism-based; conditions: in vivo
Rattus norvegicus [29] = assay: Hepatotoxicity in neutropenic rat assessed as ASAT level in serum at 10 mg/kg/day, ip administered 72 hrs post infection for 10 days measured on day 13 after infection (Rvb=46.6+/-6.1 U/l); type: toxicity, organism-based; parameters: route intraperitoneal; conditions: in vivo
Aspergillus fumigatus [30] = assay: Antifungal activity against Aspergillus fumigatus by CLSI method; type: functional
Aspergillus fumigatus [31] = assay: Antifungal activity against Aspergillus fumigatus by Etest method; type: functional
Rattus norvegicus [32] = assay: Hepatotoxicity in neutropenic rat assessed as ALAT level in serum at 10 mg/kg/day, ip administered 72 hrs post infection for 10 days measured on day 6 after infection (Rvb=43.9+/-7.9 U/l); type: toxicity, organism-based; parameters: route intraperitoneal; conditions: in vivo

In the case of CC[C@H](C)C[C@H](C)CCCCCCCCC(=O)N[C@H]1C[C@@H](O)[C@@H](NCCN)NC(=O)[C@@H]2[C@@H](O)CCN2C(=O)[C@H]([C@H](O)CCN)NC(=O)[C@H]([C@H](O)[C@@H](O)c2ccc(O)cc2)NC(=O)[C@@H]2C[C@@H](O)CN2C(=O)[C@H]([C@@H](C)O)NC1=O [CASPOFUNGIN], the Activity (Aspergillus fumigatus [1]) is reported as 100%, the Activity (Aspergillus fumigatus [2]) is reported as 93% and the Activity (Aspergillus fumigatus [3]) is reported as 27%. The Activity (Aspergillus fumigatus [4]) was 67%, the AUC at 72 h [5] was 549 µg·h/mL and the AUC at 240 h [6] was 114 µg·h/mL. The Activity (Rattus norvegicus [7]) was 44.3 µmol/L, the Activity (Rattus norvegicus [8]) was 36.5 µmol/L and the Activity (Rattus norvegicus [9]) was 42 µmol/L. The Activity (Rattus norvegicus [10]) was 24 µmol/L, the Activity (Rattus norvegicus [11]) was 31 µmol/L and the Activity (Rattus norvegicus [12]) was 28.4 µmol/L. For the same compound, the Activity (Rattus norvegicus [13]) was 12.2 mmol/L, the Activity (Rattus norvegicus [14]) was 5.9 mmol/L and the Activity (Rattus norvegicus [15]) was 10.9 mmol/L. It also gave an Activity (Rattus norvegicus [16]) of 15.7 mmol/L, an Activity (Rattus norvegicus [17]) of 6.9 mmol/L and an Activity (Rattus norvegicus [18]) of 11.4 mmol/L. It also gave an Activity (Rattus norvegicus [19]) of 41.4 U/L, an Activity (Rattus norvegicus [20]) of 61.6 U/L and an Activity (Rattus norvegicus [21]) of 94.2 U/L. For the same compound, the Activity (Rattus norvegicus [22]) was 50.5 U/L, the Activity (Rattus norvegicus [23]) was 36.4 U/L and the Activity (Rattus norvegicus [24]) was 118 U/L. For the same compound, the Activity (Rattus norvegicus [25]) was 49.3 U/L, the Activity (Rattus norvegicus [26]) was 113 U/L and the Activity (Rattus norvegicus [27]) was 138.4 U/L. It also gave an Activity (Rattus norvegicus [28]) of 50.2 U/L, an Activity (Rattus norvegicus [29]) of 68 U/L and an MIC (Aspergillus fumigatus [30]) of 8 µg/mL (≈ 7.32 µM). For the same compound, the MIC (Aspergillus fumigatus [31]) was 0.05 µg/mL (≈ 0.0457 µM) and the Activity (Rattus norvegicus [32]) was 31.5 U/L.
